In ChEMBL document CHEMBL3525970, “Glutaredoxin and thioredoxin can be involved in producing the pharmacologically active metabolite of a thienopyridine antiplatelet agent, prasugrel” (Drug Metab Dispos, 2011):

Columns and labels:
[1] = system: Liver microsome; test: Drug metabolism in human liver microsomes treated with R-133490 at 1 uM after 1 to 10 mins by LC-MS/MS analysis in presence of human liver cytosol and glutathione; format: ADME
[2] = Drug metabolism in potassium phosphate buffer treated with R-133490 at 1 uM after 1 to 10 mins by LC-MS/MS analysis in presence of human liver cytosol and glutathione; format: physicochemical
[3] = Drug metabolism in potassium phosphate buffer treated with R-133490 at 1 uM after 1 to 10 mins by LC-MS/MS analysis; format: physicochemical
[4] = system: Liver cytosol; test: Drug metabolism in human liver cytosol treated with R-133490 at […] 0.05 mM after 5 mins by HPLC analysis in presence of dithiothreitol and 67 ug/ml anti-human thioredoxin antibody; format: ADME; details: 50 µM

Drug metabolism [1]: metabolite_detected | Drug metabolism [2]: metabolite_detected | Drug metabolism [3]: metabolite_detected | Drug metabolism [4]: metabolite_detected
Structure (SMILES): O=C(O)/C=C1/CN(C(C(=O)C2CC2)c2ccccc2F)CCC1S (centres undefined) [R-138727]
